Assay results published in patent EP4653001A1, “TREATMENT, DIAGNOSIS AND/OR PROGNOSIS OF MITOCHONDRIAL DISEASES” (Universidad Autónoma de Madrid, priority 2024, dated 2025).

Legend:
143B cells = test: Stable isotope tracing with uniformly labeled 13C-glutamine; type: cell-based; settings: [U-13C]glutamine
Protocol: 1-5.0×10^6 cells were harvested on dry ice with 1 mL pre-chilled 80% HPLC-grade methanol (Fluka Analytical). The cell mixture was incubated for 15 min on dry ice prior to centrifugation at 18,000 × g for 10 min at 4°C. The supernatant was retained, and the remaining cell pellet was resuspended in 800 µL chilled 80% methanol and centrifuged. Supernatant was combined with the previous retention and was lyophilized using a SpeedVac (Thermo Fisher). Lyophilized samples were resuspended in 20 µL ultrapure water and subjected to metabolomics profiling using the AB/SCIEX 5500 QTRAP triple quadrupole instrument. Data analysis was performed using the GiTools software. 13C-labeled glutamine and glucose was acquired in SIGMA (605166 and 389374).
Encouraged by the beneficial effects of ME1 and because ME1-dependent NADPH production is linked to intracellular malate levels, we sought to investigate the metabolic pathways and nutrients that maintain malate production upon disruption of the ETC. It is firmly believed that in cells and tissues with defective ETC function, elevated NADH/NAD+ ratio inhibits the Pyruvate dehydrogenase complex (PDC), suppressing pyruvate entry into the mitochondria and forcing its channelling towards the Lactate Dehydrogenase (LDH) in the cytosol. […] To investigate the metabolic routes that ETC-inhibited cells used to generate glutamine-derived malate, we performed an MS-based stable isotope tracing study. DMSO and Piericidin treated 143B cells were cultured in glucose-DMEM supplemented with 2 mM of uniformly labeled [^13C]glutamine, and the incorporation of ^13C into the TCA cycle and related metabolic intermediates was quantified. Oxidative metabolism of [U-^13C]glutamine would generate M+4 isotopologues of oxaloacetate (OAA) and malate, while reductive carboxylation due to ETC inhibition (TCA cycle running in a counterclockwise direction) would produce M+3 forms of OAA and malate. DMSO-treated 143B cells used glutamine as the major anaplerotic precursor, resulting in a large amount of malate M+4. As expected, the oxidation of glutamine via the TCA cycle in CI-inhibited cells was severely diminished with a 5-fold decreased in M+4 labeled malate. Nevertheless, these cells produced citrate M+5 through reductive carboxylation of glutamine-derived a-ketoglutarate. This reaction involves addition of an unlabeled carbon by IDH2 acting in reverse relative to the canonical oxidative TCA cycle. Malate M+3 also rose more than a ~2-fold in CI-inhibited cells and was likely formed after cleavage of citrate M+5 by ATP-citrate lyase (ACLY) since this induction was blunted in ACLY KO cells. Thus, cells with defective ETC use glutamine-dependent reductive carboxylation rather than oxidative metabolism as the major pathway of malate production. […]

primary neurons = test: Neuron axon morphology (immunofluorescence); type: cell-based, mouse; settings: CI inhibition, 100 nM 24 h, extensive axon degeneration
Protocol: Primary cultures of C57BL/6 mouse cortical neurons were prepared from embryos between embryonic days 16.5 and 17.5 and seeded onto pre-treated plates coated with Poly-L-lysine hydrobromide (500 µg/ml). We used Neurobasal medium without D-glucose and sodium pyruvate (ThermoFisher) to modulate D-glucose levels, depending on the experiment (2.5 mM, 5 mM, or 25 mM).
Neuron axon morphology was quantified in primary neurons exposed to DMSO or 100 nM piericidin for 24 h. Neurons were fixed with 4% paraformaldehyde for 10 min, blocked, and permeabilized in 0.1% Triton X-100 (Tx)-PBS with 10% fetal bovine serum for 15 minutes at room temperature. Then, neurons were incubated with the primary BIII-Tubulin antibody (1:500, ab78078, Abcam) in 0.1% Tx/10% FBS-PBS overnight at 4°C. Subsequently, wells were rinsed several times in PBS before applying the fluorochrome-conjugated secondary antibody (ThermoScientific) in 0.1% Tx/10% FBS-PBS for 1h at room temperature. Neurons were finally washed in PBS, and DAPI was added prior to the microscopic analysis. Acquired confocal images were quantified by measuring the BIII-Tubulin fluorescent integrated density and normalized by the number of DAPI-positive nuclei.

astrocytes = test: ATP measurement in astrocytes (ATP Assay Kit); type: cell-based, mouse; settings: 100 nM, 24 h
Protocol: Primary cultures of C57BL/6 mouse cortical astrocytes were derived from postnatal day 2-3 pups. They were plated on pre-treated dishes coated with Poly-L-lysine (100 µg/ml) and cultured in DMEM/F-12 (ThermoFisher) supplemented with 15% FBS and 1% penicillin/streptomycin (P/S). After 24 hours of plating, the medium was switched to 10% FBS.
ATP Assay Kit (Abcam, #ab83355) was used to analyze ATP levels. Briefly, Cells were seeded in M24 plates (neurons at 500,000 cells/mL and monolayer density for astrocytes), and for the ATP experiments, three wells per condition were combined. An alternative deproteinization protocol was applied to purify the samples, and a Colorimetric Assay was conducted as outlined in the original protocol. The measurements were obtained using the CLARIOstar Plus plate reader from BMG LABTECH.

[1] = CI-inhibited vs DMSO 143B cells

**Q.** Which results are given for `CC=C(C)C(O)C(C)C=C(C)C=CCC(C)=CCc1nc(OC)c(OC)c(O)c1C` (stereo not drawn) [Piericidin, Piericidin A]?
**A.** decrease in M+4 labeled malate (143B cells; [1]): 5 fold; rise of Malate M+3 (143B cells; [1]): > 2 fold; labeling of malate M+3 (143B cells; control and PC KO cells, 24 h): increasing; malate M+4 (143B cells; control and PC KO cells, 24 h): reduction; neuron morphology (primary neurons): significant morphological alterations; ATP levels (astrocytes): did not cause any alteration
